In US11414385B2, “Compounds and methods for treating, detecting, and identifying compounds to treat apicomplexan parasitic diseases” (The University of Chicago, priority 2015, dated 2022):
Values after ≈ are worked out from the molar mass of the structure shown. “Also recorded” adds a separate entry of the source.

Tests used:
bovine cytochrome bc = target: T1, bovine cytochrome bc (Bos taurus, UniProt P00157); experiment: Binding assays with bovine cytochrome bc1
T1 construct: Whole bovine heart was collected directly from slaughter and transported on ice to the cold room; from tissue; host or cells: bovine heart mitochondria, DDM-solubilised, column-purified

HEP G2 = experiment: IC50 with HEP G cells (toxicity); assay type: cell-based, human; settings: not toxic
RH-YFP = experiment: Assessment of compound degradation and microbicidal effect on Toxoplasma; assay type: cell-based, Toxoplasma gondii
Procedure: HFF were cultured in a 96-well plate and infected with RH-YFP as described above on Day 0, 20 μL of compound was added to 9 wells for each compound and concentration (3 conditions, 3 wells per condition). In condition I, media was removed and replaced with fresh media on Day 3. In condition II, media was removed and replaced with fresh media and more compound on Day 3. In condition III, media was not replaced on Day 3, nor was the compound refreshed. On Day 6, media was removed and replaced with clean media in all wells. On Day 3, 6, and 9 plate was read in the fluorimeter and analyzed graphically in Prism (GraphPad Software).

[1] = system: human foreskin fibroblasts (HFF); experiment: Cytotoxicity assay with WST-1 in HFF; assay type: cell-based; settings: 10 μM and 50 μM, WST-1
Procedure: (§1) Toxicity assays were conducted using WST-1 cell proliferation reagent (Roche). HFF were grown on a flat, clear-bottomed, black 96-well plate. Confluent HFF were treated with inhibitory compounds at concentrations equal to those being tested in challenge assays. Compounds were diluted in IMDM-C, and 20 μl were added to each designated well, with triplicates for each condition. A gradient of 2 fold-decreasing concentrations of DMSO in clear IMDM-C was used as a control. The plate was incubated for 72 hours at 37° C. 10 μl of WST-1 reagent (Roche) were added to each well and the cells were incubated for 30 to 60 minutes. Absorbance was read using a fluorometer at 420 nm. A higher degree of color change (and absorbance) indicated mitochondrial activity and cell viability.
as §1, with “(Roche) as described in Fomovska, et. al. (18,19).” for “(Roche).”, “of 10 μM and 50 μM.” for “equal to those being tested in challenge assays.”, “DMSO from 10% to 0%” for “DMSO”, “fluorimeter” for “fluorometer”

Toxoplasma RPS13 delta = experiment: RPS13 delta G0 arrested parasite in interferon gamma knockout mice; assay type: in vivo, Toxoplasma gondii; settings: with tafenoquine 3 mg/kg single dose, minus tetracycline
Procedure: RPS13 Δ. This G0 arrested parasite persists in tissue culture for prolonged times in the absence of tetracycline. The parasite (x) was used to infect interferon gamma knockout mice. For the first y days no tetracycline was administered. After that time tetracycline was administered. Mice were observed and at the time they appeared ill or at the termination of the experiment they were euthanized and tissues fixed in formalin and stained with hematoxylin and eosin or immunoperoxidase stained and parasite burden was assessed.

[2] = system: Toxoplasma gondii (Pru strain expressing luciferase) tachyzoites; experiment: Toxoplasma in vivo, IVIS luminescence in mice; settings: 5 mg/kg/day IP
Procedure: IVIS. Mice were infected intraperitoneally with 20×10^3 Toxoplasma gondii (Pru strain expressing luciferase) tachyzoites. Treatment commenced 2 hours later with JAG21 (5 mg/kg) which was dissolved in DMSO and administered intraperitoneally in a total volume of 0.05 ml. Mice were imaged every second day starting on day 4 post infection using a IVIS Spectrum (Caliper Life Sciences) for a 1 minute exposures, with medium binning, 20 minutes post injection with 150 mg/kg of D-luciferin potassium salt solution.

MDCK-MDR1 cells = experiment: in vitro; assay type: in vitro ADME; settings: dog, MDCK-MDR1
[3] = Cytotoxicity assay with WST-1 in HFF; assay type: cell-based; settings: human, human foreskin fibroblasts (HFF); read-out: HFF Toxicity CC50
Procedure: as §1
as §1, with “(Roche) as described in Fomovska, et. al. (18,19).” for “(Roche).”, “of 10 μM and 50 μM.” for “equal to those being tested in challenge assays.”, “DMSO from 10% to 0%” for “DMSO”, “fluorimeter” for “fluorometer”

FaSSIF solubility pH 6.5 = assay type: physicochemical
Dd2 parasites = experiment: Isobologram drug combination assay (fixed ratio, FIC); assay type: cell-based, Plasmodium falciparum; settings: Dd2, fixed ratios
Procedure: Isobologram experiments were performed in similar fashion utilizing the modified fixed ratio methodology. Briefly, MJM170 and either atovaquone or cycloguanil or BRD6323 were mixed at multiple fixed volumetric ratios (10:0, 8:2, 6:4, 4:6, 2:8, and 0:10) and then serially diluted in 12-point 2-fold dilutions and dispensed in triplicate to 384-well assay plates and replicated on three different days. EC50 values were calculated as above, and FICs were calculated for each drug combination as described^S76. Synergy was defined as an FIC <1.0, additivity as FIC=1.0, and antagonism as FIC >1.0.

P. falciparum Dd2 = experiment: SYBR Green drug sensitivity of Dd2 and cytochrome b / scDHODH lines; assay type: cell-based, Plasmodium falciparum
Procedure: We used the following parasite line from the MR4 repository of the American Type Culture Collection (ATCC): Dd2 (MRA-156). Mutant Dd2 parasites harboring a G33A or G33V substitution in cytochrome b were as reported. Dd2 parasites with a G131 S mutation in cytochrome b and transgenic lines expressing a chromosomally integrated copy of the S. cerevisiae DHODH were utilized as previously described. Parasites were cultured by standard methods in RPMI media supplemented with 5% human O^+ serum and 0.25% AlbuMAX® II (Life Technologies 11021-045).
Drug susceptibility was measured using the SYBR Green method. Twelve point curves based on 2-fold dilutions of the test compound were carried out in triplicate each day and replicated on at least three different days. EC50 values were calculated using a nonlinear regression curve fit in Prism 6.0 for Mac (GraphPad Software, Inc.).

Compound | inhibition of bovine Cytbc1 (bovine cytochrome bc) | binding affinity to bovine cytochrome bc (bovine cytochrome bc; in comparison with previous compounds) | toxicity to human HepG cells (HEP G2) [µM] | compound degradation over time (RH-YFP; 6-day exposure in culture) | microbicidal effect (RH-YFP; RH-YFP, media replaced) | toxicity to human foreskin fibroblasts [1] | protection against RPS13 delta in combination with tafenoquine (Toxoplasma RPS13 delta) | effect on T. gondii tachyzoites in mice [2] | MDCK-MDR1 Efflux Ratio (MDCK-MDR1 cells) | CC50 at 72 h [3] [µM] | solubility (FaSSIF solubility pH 6.5; FaSSIF, pH 6.5, fassif) [µM] | improved FaSSIF/FeSSIF (pH 6.5) solubility (FaSSIF solubility pH 6.5; relative to ELQ 271) [fold] | combination effect with BRD6323 (Dd2 parasites) | combination effect with atovaquone (Dd2 parasites) | combination effect with cycloguanil (Dd2 parasites) | cross-resistance in cytochrome b drug-resistant mutant lines (P. falciparum Dd2; Dd2 G33A and Dd2 G33V) | EC50 (P. falciparum Dd2; Plasmodium falciparum, DD2) [µM] | inhibition of parasite supplemented with yeast cytosolic DHODH (P. falciparum Dd2; scDHODH line)
Cc1[nH]c2c(c(=O)c1-c1ccc(Oc3ccc(OC(F)(F)F)cc3)cc1)CCCC2 [JAG21, 2-methyl-3-(4-(4-(trifluoromethoxy)phenoxy)phenyl)-5,6,7,8-tetrahydroquinolin-4(1H)-one] | but not fully | lower binding affinity | > 17 | did not appear that the compound was being degraded over time | Neither compound was found to be microbicidal | no toxicity | both needed to contain RPS 13Δ; also recorded: protect against a G0 arrested parasite; also recorded: superior to either alone | protects against Toxoplasma gondii tachyzoites; also recorded: cleared; also recorded: eliminates T. gondii tachyzoites | – | – | – | – | – | – | – | – | – | –
Cc1[nH]c2c(c(=O)c1-c1ccc(Oc3ccccc3)cc1)CCCC2 [MJM170] | – | – | – | – | – | – | – | – | 1.23 | 20 | 9.8 (≈ 3.25 µg/mL) | 3 | Antagonism | modest synergy; also recorded: modestly synergistic; also recorded: Slight synergy | additive effect | without cross-resistance | 0.0295 | cannot inhibit
